# According to BindingDB's records for doi:10.1021/acs.jmedchem.0c01741 (Zhengzhou University, 2020):
# Assay: Inhibition of ABCB1 in multidrug-resistant human SW620/Ad300 cells assessed as increase in reversal of resistance to paclitaxel-induced cytotoxicity by measuring paclitaxel IC50 pre-incubated for 4 hrs followed by paclitaxel addition and measured after 72 hrs by MTT assay (Rvb = 4.23 +/- 0.6 uM)
row,Compound,IC50
1,Cc1cc(Nc2ccc(O)cc2)n2nc(SCc3nc4ccccc4[nH]3)nc2n1,2.38 µM
2,Cc1cc(Nc2ccc(Cl)cc2Cl)n2nc(SCc3nc4ccccc4[nH]3)nc2n1,0.71 µM
3,COc1cc(Nc2cc(C)nc3nc(SCc4nc5ccccc5[nH]4)nn23)cc(OC)c1OC,0.25 µM
4,O=c1cc(-c2ccccc2)[nH]c2nc(SCc3nc4ccccc4[nH]3)nn12,0.66 µM
5,Cc1cc(Nc2ccc(F)cc2)n2nc(SCCCc3ccccc3)nc2n1,4.22 µM
6,Cc1cc(Nc2ccc(F)cc2)n2nc(SCc3nc4ccccc4[nH]3)nc2n1,0.022 µM
7,Cc1cc(Nc2ccc(F)cc2)n2nc(SCC(=O)c3ccccc3)nc2n1,1.26 µM
8,COc1ccc(Nc2cc(C)nc3nc(SCc4nc5ccccc5[nH]4)nn23)cc1,0.32 µM
9,C#CCSc1nc2nc(C)cc(Nc3ccc(F)cc3)n2n1,3.36 µM
10,Cc1cc(Nc2ccc(F)cc2)n2nc(SCc3ccc([N+](=O)[O-])cc3)nc2n1,2.28 µM
11,CC(=O)c1ccc(Nc2cc(C)nc3nc(SCc4nc5ccccc5[nH]4)nn23)cc1,0.76 µM
12,Cc1cc(Nc2ccc(F)cc2)n2nc(SCCc3ccccc3)nc2n1,1.55 µM
13,Cc1cc(Nc2ccc(F)c(C)c2)n2nc(SCc3nc4ccccc4[nH]3)nc2n1,0.47 µM
14,Cc1ccc(Nc2cc(C)nc3nc(SCc4nc5ccccc5[nH]4)nn23)cc1,0.5 µM
15,Cc1cc(Nc2ccc(N3CCN(C)CC3)cc2)n2nc(SCc3nc4ccccc4[nH]3)nc2n1,1.59 µM
16,C=CCSc1nc2nc(C)cc(Nc3ccc(F)cc3)n2n1,4.2 µM
17,CC(C)c1cc(Nc2ccc(F)cc2)n2nc(SCc3ccccc3)nc2n1,1.44 µM
18,CCCSc1nc2nc(C)cc(Nc3ccc(F)cc3)n2n1,3.54 µM
19,Cc1cc(Nc2cccc(F)c2)n2nc(SCc3nc4ccccc4[nH]3)nc2n1,0.52 µM
20,Cc1cc(Nc2ccc(F)cc2)n2nc(SCc3ccc(Cl)cc3)nc2n1,1.89 µM
21,Cc1cc(Nc2ccc(Br)cc2)n2nc(SCc3nc4ccccc4[nH]3)nc2n1,0.45 µM

row,Compound,IC50
1,Cc1cc(Nc2ccc(F)cc2)n2nc(SCC3CC3)nc2n1,4.11 µM
2,Cc1cc(Nc2ccc(F)cc2)n2nc(SCc3c(Cl)cccc3Cl)nc2n1,1.93 µM
3,Cc1cc(Nc2ccc(F)cc2)n2nc(SCc3ccc(Br)cc3)nc2n1,1.37 µM
4,Cc1cc(Nc2ccc3c(C)cc(=O)oc3c2)n2nc(SCc3nc4ccccc4[nH]3)nc2n1,1.14 µM
5,Cc1cc(Nc2ccc(F)cc2)n2nc(SCc3cccc4ccccc34)nc2n1,1.74 µM
6,Cc1cc(Nc2cc(C)[nH]n2)n2nc(SCc3nc4ccccc4[nH]3)nc2n1,1.57 µM
7,Cc1cc(Nc2ccc(C#N)cc2)n2nc(SCc3nc4ccccc4[nH]3)nc2n1,0.59 µM
8,Cc1cc(Nc2ccc(F)cc2)n2nc(SCc3cccc(Br)c3)nc2n1,2.04 µM
9,Cc1cc(Nc2ccc(C(F)(F)F)cc2)n2nc(SCc3nc4ccccc4[nH]3)nc2n1,0.85 µM
10,Cc1cc(Nc2ccc(OC(F)(F)F)cc2)n2nc(SCc3nc4ccccc4[nH]3)nc2n1,0.72 µM
11,Cc1cc(Nc2ccc(F)cc2)n2nc(SCc3csc4ccc(Cl)cc34)nc2n1,2.84 µM
12,Cc1cc(Nc2ccccc2F)n2nc(SCc3nc4ccccc4[nH]3)nc2n1,0.22 µM
13,Cc1cc(Nc2ccc(F)cc2)n2nc(SCc3cccc([N+](=O)[O-])c3)nc2n1,1.99 µM
14,Cc1cc(Nc2ccc(F)cc2)n2nc(SCc3ccc(F)cc3)nc2n1,1.27 µM
15,Cc1cc(Nc2ccc(C(=O)O)cc2)n2nc(SCc3nc4ccccc4[nH]3)nc2n1,4.08 µM
16,Cc1cc(Nc2ccc(F)cc2)n2nc(SCc3ccc(C(F)(F)F)cc3)nc2n1,2.57 µM
17,C#Cc1cccc(Nc2cc(C)nc3nc(SCc4nc5ccccc5[nH]4)nn23)c1,1.43 µM
18,COc1cccc(Nc2cc(C)nc3nc(SCc4nc5ccccc5[nH]4)nn23)c1,0.57 µM
19,Cc1cc(Nc2ccc(F)c(Cl)c2)n2nc(SCc3nc4ccccc4[nH]3)nc2n1,0.77 µM
20,Cc1cc(Nc2ccc(F)cc2)n2nc(SCc3ccccc3Br)nc2n1,1.64 µM
21,Cc1ccc(Nc2cc(C)nc3nc(SCc4nc5ccccc5[nH]4)nn23)c(F)c1,0.63 µM

# Assay: Inhibition of ABCB1 (unknown origin) expressed in HEK293 cells assessed as increase in reversal of resistance to paclitaxel-induced cytotoxicity by measuring paclitaxel IC50 at 20 uM pre-incubated for 4 hrs followed by paclitaxel addition and measured after 72 hrs by MTT assay (Rvb = 91.40 +/- 23.32 nM)
row,Compound,IC50
1,Cc1cc(Nc2ccc(F)cc2)n2nc(SCc3nc4ccccc4[nH]3)nc2n1,0.005 µM

# Assay: Inhibition of ABCB1 (unknown origin) expressed in HEK293 cells assessed as increase in reversal of resistance to paclitaxel-induced cytotoxicity by measuring paclitaxel IC50 at 10 uM pre-incubated for 4 hrs followed by paclitaxel addition and measured after 72 hrs by MTT assay (Rvb = 91.40 +/- 23.32 nM)
row,Compound,IC50
1,Cc1cc(Nc2ccc(F)cc2)n2nc(SCc3nc4ccccc4[nH]3)nc2n1,0.01 µM

# Assay: Inhibition of ABCB1 in multidrug-resistant human KB-C2 cells assessed as increase in reversal of resistance to paclitaxel-induced cytotoxicity by measuring paclitaxel IC50 at 20 uM pre-incubated for 4 hrs followed by paclitaxel addition and measured after 72 hrs by MTT assay (Rvb = 1886.37 +/- 243.05 nM)
row,Compound,IC50
1,Cc1cc(Nc2ccc(F)cc2)n2nc(SCc3nc4ccccc4[nH]3)nc2n1,0.0048 µM

# Assay: Inhibition of ABCB1 in multidrug-resistant human KB-C2 cells assessed as increase in reversal of resistance to paclitaxel-induced cytotoxicity by measuring paclitaxel IC50 at 10 uM pre-incubated for 4 hrs followed by paclitaxel addition and measured after 72 hrs by MTT assay (Rvb = 1886.37 +/- 243.05 nM)
row,Compound,IC50
1,Cc1cc(Nc2ccc(F)cc2)n2nc(SCc3nc4ccccc4[nH]3)nc2n1,0.022 µM

# Assay: Inhibition of ABCB1 in multidrug-resistant human SW620/Ad300 cells assessed as increase in reversal of resistance to paclitaxel-induced cytotoxicity by measuring paclitaxel IC50 at 20 uM pre-incubated for 4 hrs followed by paclitaxel addition and measured after 72 hrs by MTT assay (Rvb = 4233.18 +/- 499.10 nM)
row,Compound,IC50
1,Cc1cc(Nc2ccc(F)cc2)n2nc(SCc3nc4ccccc4[nH]3)nc2n1,0.022 µM

# Assay: Inhibition of ABCB1 in multidrug-resistant human SW620/Ad300 cells assessed as increase in reversal of resistance to paclitaxel-induced cytotoxicity by measuring paclitaxel IC50 at 10 uM pre-incubated for 4 hrs followed by paclitaxel addition and measured after 72 hrs by MTT assay (Rvb = 4233.18 +/- 499.10 nM)
row,Compound,IC50
1,Cc1cc(Nc2ccc(F)cc2)n2nc(SCc3nc4ccccc4[nH]3)nc2n1,0.0736 µM
